# Measured values taken from PubChem BioAssay AID504587 (National Center for Advancing Translational Sciences (NCATS), 2011).
# System: Caco-2 bidirectional permeability, LC-MS/MS efflux ratio
# Experiment: Inhibitors of HPGD: Efflux Ratio Profiling
# Conditions: active compounds read low
# Source text: Human 15-Hydroxyprostaglandin dehydrogenase (HPGD) catalyzes the inactivation of prostaglandin E2, and plays a major role in cancer biology by antagonizing the oncogenic potential of cyclooxygenase type 2 (COX2). Assays are available, based on absorbance/fluorescence increase of NADH with the substrate 15-OH prostaglandin E2. This bioassays provides profiling data on Caco-2 cell permeability of leads compounds developed for the HPGD project. This in vitro model is often predictive of in vivo efflux of the compound by measuring the ratio of transport in and out the plasma membrane of the Caco2-cell line. NIH Chemical Genomics Center [NCGC] Structural Genomics Consortium [SGC]
# 1. Buffer Preparation: Prepare 1M HEPES: add 23.83g HEPES to 100ml of 0.85% NaCl Prepare HBSS+ buffer: add 12.8ml of 1M HEPES in 0.85% NaCl to 500ml HBSS buffer. 2. Take out the compounds from -80 degrees C, ultrasonicate or pre-warm for a few minutes to thaw the compounds. 3. Solution preparation Prepare donor buffer: For A-to-B direction: HBSS buffer with 0.3% DMSO and 5uM Lucifer Yellow (LY): add 150 µl DMSO and 50 µl LY (5mM) into 50ml HBSS buffer (pH 7.4). HBSS buffer with 0.1% DMSO and 5 µM Lucifer Yellow (LY): add 50 µl DMSO and 50 µl LY (5mM) into 50ml HBSS buffer (pH 7.4). […] The T0, LY and T90, LY plates are read by FlexStation 3 at excitation of 485 nm and emission of 535 nm to determine LY permeability. […]
row,Compound,efflux ratio
1,Cc1cccc(-n2cnc3cc(C(=O)N4CCCCC4)ccc32)c1,15
2,Cc1cc(-c2nnc3n2CCCCC3)c(C)n1-c1ccccc1,21
